This note sets out measurements from PMC10451648 (Antibiotics, 2023).

For series [1], the system named is human red blood cells. Kind of series: Hemolysis activity against red blood cells. The settings on record: human RBCs in 172 mM Tris-HCl pH 7.6, 30 min at 37 °C, absorbance 535 nm; DMSO = 0%, M-Lycotoxin = 100%; final peptide conc. 100 to 0.39. The method, then: AMPs primarily target microbial membranes, leading to their antimicrobial activity through membrane lysis. However, it is important to consider their potential effects on human cell membranes, as this could raise concerns regarding cytotoxicity. […] Hemolytic activity was assessed by measuring the absorption at 535 nm, which indicates the leakage of red blood cell cytoplasmic contents and hemoglobin.
Human red blood cells (RBCs) were supplied by the Japanese Red Cross Society (Tokyo, Japan). The hemolytic assay of the synthesized peptides was performed as previously reported. Briefly, 5.0 mL of the total erythrocytes were washed three times with 172 mM Tris-HCl buffer (pH = 7.6, wash buffer:WB) and 1.0 mL of precipitated erythrocytes was diluted with 9.0 mL of WB. Then, 0.5 mL of the suspension was diluted in WB, and 50 µL of RBC solution was incubated with 50 µL of each peptide for 30 min at 37 °C (final peptide conc. from 100 to 0.39 μM). The suspensions were then centrifuged at 400 rpm for 5 min. The absorbance of the supernatant was measured at a wavelength of 535 nm. M-Lycotoxin [22], which is a typical hemolytic toxic peptide derived from Wolf spider, was used as a positive control, and the absorbance of the sample from DMSO and M-Lycotoxin treatment was defined as 0 and 100%, respectively.

For series [2], the system named is S. aureus NBRC 13276. In kind it is cell-based, Staphylococcus aureus. How it is done: (§1) The antimicrobial activities of peptides 1–8 against Gram-positive Staphylococcus aureus, Gram-negative Escherichia coli DH5α, Pseudomonas aeruginosa, and multidrug-resistant P. aeruginosa (MDRP) were evaluated. The minimum inhibitory concentration (MIC) against these bacteria was measured as an indicator of antimicrobial activity, and the results are discussed in Table 2.
(§2) One type of Gram-positive bacteria, S. aureus NBRC 13276, and three Gram-negative bacteria, E. coli DH5α, P. aeruginosa NBRC 13275, and MDRP, were selected for the evaluation of the antimicrobial activity of the synthesized peptides. The selected bacterial strains were obtained from the Biological Resource Center, NITE (NBRC; Tokyo, Japan), and Escherichia coli DH5α cells were purchased from BioDynamics Laboratory, Inc. (Tokyo, Japan). The antimicrobial activities of the tested peptides 1–8 against each stain were examined by the standard broth microdilution method, as previously reported. Briefly, the bacteria were seeded and grown overnight at 37 °C on Agar media for other organisms i (Agar medium) and then collected with the media for other organisms ii (liquid medium), according to the 17th revision of Japanese Pharmacopoeia. Next, 10 μL of the peptide solution per well was added to each well of a sterile 96-well plate, and 90 μL per well of inoculation was mixed with 10^4 CFUs (colony forming units) per mL and added to each well, and the plate was incubated for 18 h at 35 °C.

Series [3] concerns Escherichia coli DH5α. In kind it is cell-based. To be noted: broth microdilution, 10^4 CFUs per mL, 18 h at 35 °C; MIC = lowest concentration that completely inhibited bacterial growth; final conc. 0.39 to 100. The method, then:
as §1, §2

Series [4] has as its system multidrug-resistant P. aeruginosa (MDRP). In kind it is cell-based, Pseudomonas aeruginosa. The settings on record: multidrug-resistant (MDRP, 18 h). How it is done:
as §1, §2

Series [5] relates to P. aeruginosa NBRC 13275. It is filed as cell-based, Pseudomonas aeruginosa. To be noted: NBRC 13275, 18 h. How it is done:
as §1, §2

In series [6] the test system is Proteinase K. The series can be described thus: 0.002% (v/v) Proteinase K. To be noted: 37 °C, up to 24 h.
The conditions of series [7]: PBS without FBS.
The nature of series [8]: in vitro. To be noted: 50% fetal bovine serum in PBS.
Setting [9] is: broth microdilution, 10^4 CFUs per mL, 18 h at 35 °C, MIC = lowest concentration that completely inhibited bacterial growth, final conc. 0.39 to 100.

Values after ≈ are worked out from the molar mass of the structure shown. “Also recorded” adds a separate entry of the source. Read-outs that look alike come from different tables or passages of the source. Square brackets hold non-standard residues; d marks the D form. Peptide text beside a SMILES is read from it. Api = NC1(C(=O)O)CCNCC1; Aib = CC(C)(N)C(=O)O Bounds are passed on as bounds.

On to `CC[C@H](C)[C@H](NC(=O)CN)C(=O)N[C@@H](CCCCN)C(=O)N[C@@H](CCCCN)C(=O)N[C@@H](Cc1ccccc1)C(=O)N[C@@H](CC(C)C)C(=O)NC1(C(=O)N[C@@H](CO)C(=O)NC(C)(C)C(=O)N[C@@H](CCCCN)C(=O)N[C@@H](CCCCN)C(=O)N[C@@H](Cc2ccccc2)C(=O)N[C@H](C(=O)N[C@@H](CCCCN)C(=O)NC(C)(C)C(=O)N[C@@H](Cc2ccccc2)C(=O)N[C@@H](CCCCN)C(N)=O)C(C)C)CCNCC1` [Peptide 4] (H-GIKKFL[Api]S[Aib]KKFVK[Aib]FK-NH2), for which, in [1], the “Hemolysis (concentration at which hemolytic activity is exhibited)” value (“Hemolysis” for short) amounted to 12.5 µM. For the same compound, the “MIC, S. aureus, Gram(+)” value in series [2] (setting [9]) is 12.5 µM (≈ 24.9 µg/mL). The “MIC, E. Coli DH5α, Gram(−)” value in series [3] worked out at 1.56 µM (≈ 3.11 µg/mL). The “MIC, MDRP” value in series [4] worked out at 6.25 µM (≈ 12.5 µg/mL). Besides, the “MIC, P. aeruginosa, Gram(−)” value in series [5] is 3.125 µM (≈ 6.23 µg/mL).
With `CC[C@H](C)[C@H](NC(=O)CN)C(=O)N[C@@H](CCCCN)C(=O)N[C@@H](CCCCN)C(=O)N[C@@H](Cc1ccccc1)C(=O)N[C@@H](CC(C)C)C(=O)N[C@@H](CCCCN)C(=O)N[C@@H](CO)C(=O)NC(C)(C)C(=O)N[C@@H](CCCCN)C(=O)N[C@@H](CCCCN)C(=O)N[C@@H](Cc1ccccc1)C(=O)N[C@H](C(=O)NC1(C(=O)NC(C)(C)C(=O)N[C@@H](Cc2ccccc2)C(=O)N[C@@H](CCCCN)C(N)=O)CCNCC1)C(C)C` [Peptide 7] (H-GIKKFLKS[Aib]KKFV[Api][Aib]FK-NH2), in [1], the “Hemolysis” value stood at 12.5 µM. Moreover, the “MIC, S. aureus, Gram(+)” value in series [2] (setting [9]) turned out to be 12.5 µM (≈ 24.9 µg/mL). Besides, the “MIC, E. Coli DH5α, Gram(−)” value in series [3] is 1.56 µM (≈ 3.11 µg/mL). The “MIC, MDRP” value in series [4] worked out at 6.25 µM (≈ 12.5 µg/mL). In addition, in [5], the “MIC, P. aeruginosa, Gram(−)” value came out at 3.125 µM (≈ 6.23 µg/mL).
`CC[C@H](C)[C@H](NC(=O)CN)C(=O)N[C@@H](CCCCN)C(=O)NC1(C(=O)N[C@@H](Cc2ccccc2)C(=O)N[C@@H](CC(C)C)C(=O)N[C@@H](CCCCN)C(=O)N[C@@H](CO)C(=O)NC(C)(C)C(=O)N[C@@H](CCCCN)C(=O)N[C@@H](CCCCN)C(=O)N[C@@H](Cc2ccccc2)C(=O)N[C@H](C(=O)N[C@@H](CCCCN)C(=O)NC(C)(C)C(=O)N[C@@H](Cc2ccccc2)C(=O)N[C@@H](CCCCN)C(N)=O)C(C)C)CCNCC1` [Peptide 3] (H-GIK[Api]FLKS[Aib]KKFVK[Aib]FK-NH2): in series [1], the “Hemolysis” value worked out at 25 µM. For the same compound, the “MIC, S. aureus, Gram(+)” value in series [2] (NBRC 13276, 18 h) was found to be 25 µM (≈ 49.8 µg/mL). Further, in series [3], the “MIC, E. Coli DH5α, Gram(−)” value was 3.125 µM (≈ 6.23 µg/mL). The “MIC, P. aeruginosa, Gram(−)” value in series [5] is 3.125 µM (≈ 6.23 µg/mL).
“H-Gly-Ile-Lys-Api-Phe-Leu-Lys-Ser-Aib-Lys-Lys-Phe-Val-Lys-Aib-Phe-Lys-NH2”: in [6], the cleaved bond entry is listed as “Phe16-Lys17, 24 h”.
Consider “H-Gly-Ile-Api-Lys-Phe-Leu-Lys-Ser-Aib-Lys-Lys-Phe-Val-Lys-Aib-Phe-Lys-NH2”, for which the cleaved bond result in series [6] is given as “Phe16-Lys17, 24 h”.
Consider `CC[C@H](C)[C@H](NC(=O)CN)C(=O)N[C@@H](CCCCN)C(=O)N[C@@H](CCCCN)C(=O)N[C@@H](Cc1ccccc1)C(=O)N[C@@H](CC(C)C)C(=O)N[C@@H](CCCCN)C(=O)N[C@@H](CO)C(=O)NC(C)(C)C(=O)N[C@@H](CCCCN)C(=O)N[C@@H](CCCCN)C(=O)N[C@@H](Cc1ccccc1)C(=O)N[C@H](C(=O)N[C@@H](CCCCN)C(=O)NC(C)(C)C(=O)N[C@@H](Cc1ccccc1)C(=O)NC1(C(N)=O)CCNCC1)C(C)C` [Peptide 8] (H-GIKKFLKS[Aib]KKFVK[Aib]F[Api]-NH2), for which, in series [1], the “Hemolysis” value was determined as 100 µM. For the same compound, the “MIC, S. aureus, Gram(+)” value in series [2] (NBRC 13276, 18 h) stood at 12.5 µM (≈ 24.9 µg/mL). In series [3], the “MIC, E. Coli DH5α, Gram(−)” value worked out at 3.125 µM (≈ 6.23 µg/mL). Further, the “MIC, MDRP” value in series [4] turned out to be 12.5 µM (≈ 24.9 µg/mL). Moreover, the “MIC, P. aeruginosa, Gram(−)” value in [5] is 3.125 µM (≈ 6.23 µg/mL).
As to “H-Gly-Ile-Lys-Lys-Phe-Leu-Api-Ser-Aib-Lys-Lys-Phe-Val-Lys-Aib-Phe-Lys-NH2”, the cleaved bond result in [6] is reported as “Phe16-Lys17, 24 h”.
On to `CC[C@H](C)[C@H](NC(=O)CN)C(=O)N[C@@H](CCCCN)C(=O)N[C@@H](CCCCN)C(=O)N[C@@H](Cc1ccccc1)C(=O)N[C@@H](CC(C)C)C(=O)N[C@@H](CCCCN)C(=O)N[C@@H](CO)C(=O)NC(C)(C)C(=O)N[C@@H](CCCCN)C(=O)NC1(C(=O)N[C@@H](Cc2ccccc2)C(=O)N[C@H](C(=O)N[C@@H](CCCCN)C(=O)NC(C)(C)C(=O)N[C@@H](Cc2ccccc2)C(=O)N[C@@H](CCCCN)C(N)=O)C(C)C)CCNCC1` [Peptide 6] (H-GIKKFLKS[Aib]K[Api]FVK[Aib]FK-NH2), for which, in series [1], the “Hemolysis” value was found to be 50 µM. Further, in [2] (NBRC 13276, 18 h), the “MIC, S. aureus, Gram(+)” value came to 12.5 µM (≈ 24.9 µg/mL). Also, the “MIC, E. Coli DH5α, Gram(−)” value in [3] is 1.56 µM (≈ 3.11 µg/mL). Further, the “MIC, MDRP” value in [4] turned out to be 6.25 µM (≈ 12.5 µg/mL). Moreover, the “MIC, P. aeruginosa, Gram(−)” value in series [5] is 3.125 µM (≈ 6.23 µg/mL).
With `CC[C@H](C)[C@H](NC(=O)CN)C(=O)N[C@@H](CCCCN)C(=O)N[C@@H](CCCCN)C(=O)N[C@@H](Cc1ccccc1)C(=O)N[C@@H](CC(C)C)C(=O)N[C@@H](CCCCN)C(=O)N[C@@H](CO)C(=O)NC(C)(C)C(=O)NC1(C(=O)N[C@@H](CCCCN)C(=O)N[C@@H](Cc2ccccc2)C(=O)N[C@H](C(=O)N[C@@H](CCCCN)C(=O)NC(C)(C)C(=O)N[C@@H](Cc2ccccc2)C(=O)N[C@@H](CCCCN)C(N)=O)C(C)C)CCNCC1` [Peptide 5] (H-GIKKFLKS[Aib][Api]KFVK[Aib]FK-NH2), the “Hemolysis” value in series [1] worked out at 50 µM. Besides, the “MIC, S. aureus, Gram(+)” value in series [2] (NBRC 13276, 18 h) came to 25 µM (≈ 49.8 µg/mL). In addition, the “MIC, E. Coli DH5α, Gram(−)” value in [3] stood at 1.56 µM (≈ 3.11 µg/mL). Moreover, in series [4], the “MIC, MDRP” value was determined as 6.25 µM (≈ 12.5 µg/mL). In series [5], the “MIC, P. aeruginosa, Gram(−)” value stood at 3.125 µM (≈ 6.23 µg/mL).
In general, fraction remaining refers to the share of the starting amount still present when the sample was taken. `CC[C@H](C)[C@H](NC(=O)CN)C(=O)NC1(C(=O)N[C@@H](CCCCN)C(=O)N[C@@H](Cc2ccccc2)C(=O)N[C@@H](CC(C)C)C(=O)N[C@@H](CCCCN)C(=O)N[C@@H](CO)C(=O)NC(C)(C)C(=O)N[C@@H](CCCCN)C(=O)N[C@@H](CCCCN)C(=O)N[C@@H](Cc2ccccc2)C(=O)N[C@H](C(=O)N[C@@H](CCCCN)C(=O)NC(C)(C)C(=O)N[C@@H](Cc2ccccc2)C(=O)N[C@@H](CCCCN)C(N)=O)C(C)C)CCNCC1` [Peptide 2] (H-GI[Api]KFLKS[Aib]KKFVK[Aib]FK-NH2) gave a residual amount after 24 h proteinase K treatment greater than 60%. Further, the “Stability in PBS” value in series [7] is “stable in PBS”. Further, the “Hemolysis” value in series [1] turned out to be 12.5 µM. Moreover, the “MIC, S. aureus, Gram(+)” value in [2] (setting [9]) was determined as 12.5 µM (≈ 24.9 µg/mL). The compound further had an amount remaining at 24 h in series [8] of 70%. Also, the “MIC, E. Coli DH5α, Gram(−)” value in series [3] came out at 3.125 µM (≈ 6.23 µg/mL). For the same compound, in [5], the “MIC, P. aeruginosa, Gram(−)” value came to 3.125 µM (≈ 6.23 µg/mL).
In the case of H-GIKKFLKS[Aib]KKFVK[Aib]FK-NH2, the cleaved bond result in [6] is recorded as “Phe5-Leu6, 24 h; also recorded: Phe16-Lys17”.
